Test [1] concerns the target T1, 110K ß-glucosidase (Aplysia kurodai, UniProt A0A1V1FXL2).
T1 construct: gene ApBGL; native, purified from digestive fluid; 110 kDa by SDS-PAGE; glycoprotein
Description: inhibition of 4MU-ß-glucoside hydrolysis. The class given is biochemical. To be noted: substrate 4MU-ß-glucoside; compound name doubtful (preceding sentence speaks of conduritol B epoxide).

Test [2] has as its system T2, 210K ß-glucosidase.
T2 construct: gene 210K BGL; native, purified from digestive fluid; 210 kDa by SDS-PAGE; glycoprotein
Description: 4-methylumbelliferone release, fluorometric; Lineweaver-Burk. Format: biochemical, Aplysia kurodai. To be noted: 37°C. An excerpt: 4-methylumbelliferone release, fluorometric; Lineweaver-Burk on 210K ß-glucosidase

In test [3] the target is T1, 110K ß-glucosidase. Description: inhibition of 4MU-ß-glucoside hydrolysis, fluorometric; Lineweaver-Burk. To be noted: substrate 4MU-ß-glucoside; 37°C; competitive. Format: biochemical. An excerpt:
inhibition of 4MU-ß-glucoside hydrolysis, fluorometric; Lineweaver-Burk on 110K ß-glucosidase

Test [4] addresses T2, 210K ß-glucosidase. Description: inhibition of 4MU-ß-glucoside hydrolysis, fluorometric; Cornish-Bowden. Format: biochemical, Aplysia kurodai. The conditions noted are these: substrate 4MU-ß-glucoside; 37°C; mixed. An excerpt:
inhibition of 4MU-ß-glucoside hydrolysis, fluorometric; Cornish-Bowden on 210K ß-glucosidase

The test system of test [5] is T2, 210K ß-glucosidase. Description: cellobiose hydrolysis; Lineweaver-Burk. The conditions noted are these: read-out: 210 K; 37°C; printed unit doubtful: the printed Vmax/Km scale implies mM; heading: 210 K. The class given is biochemical, Aplysia kurodai.

T1 sequence (A0A1V1FXL2 24-994): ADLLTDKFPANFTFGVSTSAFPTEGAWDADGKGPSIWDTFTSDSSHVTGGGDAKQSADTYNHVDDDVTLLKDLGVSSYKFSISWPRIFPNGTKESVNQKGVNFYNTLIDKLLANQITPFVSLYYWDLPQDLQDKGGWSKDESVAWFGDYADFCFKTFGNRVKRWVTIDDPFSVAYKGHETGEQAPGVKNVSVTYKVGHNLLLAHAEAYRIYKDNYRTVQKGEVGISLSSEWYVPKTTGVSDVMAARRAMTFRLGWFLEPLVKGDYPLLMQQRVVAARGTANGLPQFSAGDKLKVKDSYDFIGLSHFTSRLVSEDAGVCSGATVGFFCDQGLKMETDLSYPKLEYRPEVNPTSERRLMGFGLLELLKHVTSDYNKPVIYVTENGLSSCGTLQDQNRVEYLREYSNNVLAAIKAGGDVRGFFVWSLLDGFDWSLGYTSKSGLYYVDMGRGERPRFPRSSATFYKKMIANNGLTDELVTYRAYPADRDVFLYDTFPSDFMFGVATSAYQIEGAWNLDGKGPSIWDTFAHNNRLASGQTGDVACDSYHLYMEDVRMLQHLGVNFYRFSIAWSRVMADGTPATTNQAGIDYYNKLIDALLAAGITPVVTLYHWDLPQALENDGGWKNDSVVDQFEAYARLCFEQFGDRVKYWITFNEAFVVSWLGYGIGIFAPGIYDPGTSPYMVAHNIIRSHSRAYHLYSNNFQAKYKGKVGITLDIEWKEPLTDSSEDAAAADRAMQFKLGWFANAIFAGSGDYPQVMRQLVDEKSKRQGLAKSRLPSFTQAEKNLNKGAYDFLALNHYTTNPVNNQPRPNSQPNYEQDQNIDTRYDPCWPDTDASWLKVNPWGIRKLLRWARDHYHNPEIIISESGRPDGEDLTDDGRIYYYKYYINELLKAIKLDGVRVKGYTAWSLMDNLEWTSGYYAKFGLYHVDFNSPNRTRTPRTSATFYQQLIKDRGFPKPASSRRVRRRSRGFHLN

The % inhibition is the percentage by which the read-out fell short of the control. Conduritol B-sulfate: in test [1], the “% inhibition at 10 mM” value came to 48%.
As for `Cc1cc(=O)oc2cc(O[C@@H]3O[C@H](CO)[C@@H](O)[C@H](O)[C@H]3O)ccc12` [4MU-ß-glucoside], the Km in test [2] was found to be 105 ± 11 µM.
Same read-out and setting: for `Cc1cc(=O)oc2cc(O[C@@H]3O[C@H](CO)[C@H](O)[C@H](O)[C@H]3O)ccc12` [4MU-ß-galactoside] the value was 199 ± 5 µM.
As usually defined, the Ki is the equilibrium dissociation constant of an inhibitor or competing ligand from its target. A low value points to higher affinity. In the case of `O=C1O[C@H](CO)[C@@H](O)[C@H](O)[C@H]1O` [D-glucono-1,5-lactone], the inhibition constant (Ki) in test [3] was 3.66 ± 0.47 µM; in test [4], 8.1 ± 0.2 µM.
`OC[C@H]1O[C@@H](O[C@H]2[C@H](O)[C@@H](O)C(O)O[C@@H]2CO)[C@H](O)[C@@H](O)[C@@H]1O` (stereo partly drawn) [cellobiose]: in test [5], the Km was determined as 1.93 ± 0.15 mM.

The record behind these values is PMC3675134, “Comprehensive Enzymatic Analysis of the Cellulolytic System in Digestive Fluid of the Sea Hare Aplysia kurodai. Efficient Glucose Release from Sea Lettuce by Synergistic Action of 45 kDa Endoglucanase and 210 kDa ß-Glucosidase” (PLoS ONE, 2013).
